From US20180044306A1, “1,3,4-THIADIAZOL-2-YL-BENZAMIDE DERIVATIVES AS INHIBITORS OF THE WNT SIGNALLING PATHWAY” (Bayer Pharma Aktiengesellschaft, priority 2015, published 2018)

Experiments:
HCT116-FOP = assay: Control reporter assay, HCT116 cells with FOP control vector (non-functional TCF elements); assay type: cell-based; conditions: Homo sapiens, HCT-116, luciferase expression, 36 hours incubation, dilution series 50 μM to 15 nM, read-out: HCT116-FOP IC50 [M] mol/L]
Method: In a parallel approach, HCT116 cells were cotransfected with the FOP control vector and pcDNA3. The FOP vector is identical to the TOP construct, but it contains instead of functional TCF elements a randomized, non-functional sequence. For this transfection a stable transfected cell line was generated as well.
(§1) In preparation of the assay, the two cell lines were plated 24 hours before at 10000 cells per well of a 384 micro titre plate (MTP) in 30 μL growth medium. Selective inhibitory activity for small molecules on the mutated Wnt pathway was determined after parallel incubation of both (TOP and FOP) HCT116 reporter cell lines with a compound dilution series from 50 μM to 15 nM in steps of 3.16-fold dilutions in CAFTY buffer (130 mM NaCI, 5 mM KCI, 20 mM HEPES, 1 mM MgCl2, 5 mM NaHCO3, pH 7.4) containing 2 mM Ca^2+ and 0.01% BSA. The compounds were thereby serially prediluted in 100% DMSO and thereafter in addition 50 fold into the CAFTY compound dilution buffer (described above). From this dilution 10 μL were added to the cells in 30 μL growth medium and incubated for 36 hours at 37° C. and 5% CO2. Thereafter luciferase assay buffer (1:1 mixture of luciferase substrate buffer (20 mM Tricine, 2.67 mM MgSO4, 0.1 mM EDTA, 4 mM DTT, 270 μM Coenzyme A, 470 μM Luciferin, 530 μM ATP, ph adjusted to pH 7.8 with a sufficient volume of 5M NaOH) and Triton buffer (30 mL Triton X-100, 115 mL glycerol, 308 mg Dithiothreitol, 4.45 g Na2HPO4. 2 H2O, 3.03 g TRIS HCl, ad 1I H2O, pH 7.8) was added as equal volume to the compound solution on the cells to determine luciferase expression as a measure of Wnt signaling activity in a luminometer.

[1] = tested on: constitutive active colorectal cancer cell (CRC) Wnt pathway (HCT116-TOP); assay: Cellular reporter assay, HCT116 Super TopFlash (TOP), constitutive active Wnt pathway; assay type: cell-based; conditions: Homo sapiens, HCT-116; HCT116 Super TopFlash reporter cells, luciferase expression, 36 hours incubation, dilution series 50 μM to 15 nM
Method: In order to discover and characterize small molecules which inhibit the constitutive active colorectal cancer cell (CRC) Wnt pathway, a cellular reporter assay was employed. The corresponding assay cell was generated by transfection of the colorectal cancer cell line HCT116 (ATCC, #CCL-247) with the Super TopFlash vector (Morin, Science 275, 1997, 1787-1790; Molenaar et al., Cell 86 (3), 1996, 391-399). The HCT116 cell line is cultivated at 37° C. and 5% CO2 in DMEM/F-12 (Life Technologies, #11320-074), supplemented with 2 mM glutamine, 20 mM HEPES, 1.4 mM pyruvate, 0.15% Na-bicarbonate and 10% foetal bovine serum (GIBCO, #10270), this cancer cell line is pathophysiological relevant since it carries a deletion of position S45 in the β-catenin gene, leading to constitutive active Wnt signaling. Stable transfectants were generated by cotransfection with pcDNA3 and selection of stable transfected cells with 1 mg/ml G418.
as §1

IC50 (HCT116-FOP) [M]	IC50 [1] [µM]	Compound
≥ 5e-05	3.8	CN1CCN(CC(=O)Nc2cc(C(=O)Nc3nnc(N4CCN(S(=O)(=O)N(C)C)CC4)s3)ccc2OC(F)(F)F)CC1 [Example 19, N-{5-[4-(dimethylsulfamoyl)-piperazin-1-yl]-1,3,4-thiadiazol-2-yl}-3-{[(4-methylpiperazin-1-yl)acetyl]-amino}-4-(trifluoromethoxy)-benzamide]
1.8e-05	0.83	CN1CCN(CC(=O)Nc2cc(C(=O)Nc3nnc(N4CCN(C(=O)C5CC5)CC4)s3)ccc2OC(F)(F)F)CC1 [Example 9]
4.1e-05	2.85	CCOC(=O)N1CCN(c2nnc(NC(=O)c3ccc(OC(F)(F)F)c(NC(=O)CN4CCN(C)CC4)c3)s2)CC1 [Example 17, ethyl 4-(5-{[3-{[(4-methylpiperazin-1-yl)acetyl]-amino}-4-(trifluoromethoxy)-benzoyl]amino}-1,3,4-thiadiazol-2-yl)piperazine-1-carboxylate]
≥ 5e-05	15	CC(=O)N1CCN(c2nnc(NC(=O)c3ccc(OC(F)(F)F)c(NC(=O)CN4CCOCC4)c3)s2)CC1 [Example 26, N-[5-(4-acetylpiperazin-1-yl)-1,3,4-thiadiazol-2-yl]-3-[(morpholin-4-ylacetyl)amino]-4-(trifluoromethoxy)benzamide]
≥ 5e-05	50	CN(C)C(=O)N1CCN(c2nnc(NC(=O)c3ccc(OC(F)(F)F)c(NC(=O)CN4CCOCC4)c3)s2)CC1 [Example 33]
≥ 5e-05	2.1	CN1CCN(CC(=O)Nc2cc(C(=O)Nc3nnc(N4CCN(C(=O)N(C)C)CC4)s3)ccc2OC(F)(F)F)CC1 [Example 16, N,N-dimethyl-4-(5-{[3-{[(4-methylpiperazin-1-yl)acetyl]-amino}-4-(trifluoromethoxy)-benzoyl]amino}-1,3,4-thiadiazol-2-yl)piperazine-1-carboxamide]
2.69e-05	20	CN1CCN(CC(=O)Nc2cc(C(=O)Nc3nnc(N4CCC(C(C)(C)O)CC4)s3)ccc2OC(F)(F)F)CC1 [Example 28, N-{5-[4-(2-hydroxypropan-2-yl)piperidin-1-yl]-1,3,4-thiadiazol-2-yI}-3-{[(4-methylpiperazin-1-yl)-acetyl]amino}-4-(trifluoromethoxy)benzamide]
≥ 5e-05	0.11	CC1CCN(c2nnc(NC(=O)c3ccc(OC(F)(F)F)c(NC(=O)CN4CCN(C)CC4)c3)s2)CC1 [Example 7]
≥ 5e-05	3.91	O=C(CN1CCOCC1)Nc1cc(C(=O)Nc2nnc(N3CCN(C(=O)C4CC4)CC3)s2)ccc1OC(F)(F)F [Example 20, N-{5-[4-(cyclopropylcarbonyl)-piperazin-1-yl]-1,3,4-thiadiazol-2-yl}-3-[(morpholin-4-ylacetyl)amino]-4-(trifluoromethoxy)benzamide]
≥ 5e-05	50	CC1(C)CCN(c2nnc(NC(=O)c3ccc(OC(F)(F)F)c(NC(=O)CN4CCOCC4)c3)s2)CC1 [Example 34, N-[5-(4,4-dimethylpiperidin-1-yl)-1,3,4-thiadiazol-2-yl]-3-[(morpholin-4-ylacetyl)-amino]-4-(trifluoromethoxy)-benzamide]
≥ 5e-05	4.1	COC(=O)C1CCN(c2nnc(NC(=O)c3ccc(OC(F)(F)F)c(NC(=O)CN4CCOCC4)c3)s2)CC1 [Example 21, methyl 1-[5-({3-[(morpholin-4-ylacetyl)amino]-4-(trifluoromethoxy)benzoyl}-amino)-1,3,4-thiadiazol-2-yl]-piperidine-4-carboxylate]

Second part, the molecule before the results:

Compound	IC50 (HCT116-FOP) [M]	IC50 [1] [µM]
O=C(CN1CCOCC1)Nc1cc(C(=O)Nc2nnc(C3CCCCC3)s2)ccc1OC(F)(F)F [Example 23, N-(5-cyclohexyl-1,3,4-thiadiazol-2-yl)-3-[(morpholin-4-ylacetyl)amino]-4-(trifluoromethoxy)benzamide]	≥ 5e-05	4.59
CN1CCN(CC(=O)Nc2cc(C(=O)Nc3nnc(N4CCCCC4)s3)ccc2OC(F)(F)F)CC1 [Example 1, 3-{[(4-methylpiperazin-1-yl)pacetyl]amino}-N-[5-(piperidin-1-yl)-1,3,4-thiadiazol-2-yl]-4-(trifluoromethoxy)benzamide]	≥ 5e-05	0.36
COC1CCN(c2nnc(NC(=O)c3ccc(OC(F)(F)F)c(NC(=O)CN4CCOCC4)c3)s2)CC1 [Example 30, N-[5-(4-methoxypiperidin-1-yl)-1,3,4-thiadiazol-2-yl]-3-((morpholin-4-ylacetyl)-amino]-4-(trifluoromethoxy)-benzamide]	≥ 5e-05	33.5
COC(=O)N1CCN(c2nnc(NC(=O)c3ccc(OC(F)(F)F)c(NC(=O)CN4CCN(C)CC4)c3)s2)CC1 [Example 6, methyl 4-(5-{[3-{[(4-methylpiperazin-1-yl)pacetyl]amino}-4-(trifluoromethoxy)benzoyl]amino}-1,3,4-thiadiazol-2-yl)ppiperazine-1-carboxylate]	4.65e-05	0.0655
CN1CCN(CC(=O)Nc2cc(C(=O)Nc3nnc(N4CCCC4)s3)ccc2OC(F)(F)F)CC1 [Example 4, 3-{[(4-methylpiperazin-1-yl)pacetyl]amino}-N-[5-(pyrrolidin-1-yl)-1,3,4-thiadiazol-2-yl]-4-(trifluoromethoxy)benzamide]	≥ 5e-05	0.492
CC(C)(C)OC(=O)N1CCN(c2nnc(NC(=O)c3ccc(OC(F)(F)F)c(NC(=O)CN4CCOCC4)c3)s2)CC1 [Example 3, tert-butyl 4-[5-({3-[(morpholin-4-ylacetyl)amino]-4-(trifluoromethoxy)benzoyl}amino)-1,3,4-thiadiazol-2-yl]piperazine-1-carboxylate]	≥ 5e-05	0.086
CN(C)S(=O)(=O)N1CCN(c2nnc(NC(=O)c3ccc(OC(F)(F)F)c(NC(=O)CN4CCOCC4)c3)s2)CC1 [Example 15, N-{5-[4-(dimethylsulfamoyl)-piperazin-1-yl]-1,3,4-thiadiazol-2-yl}-3-[(morpholin-4-ylacetyl)-amino]-4-(trifluoromethoxy) benzamide]	≥ 5e-05	1.99
CN1CCN(CC(=O)Nc2cc(C(=O)Nc3nnc(N4CCC(C)(C)CC4)s3)ccc2OC(F)(F)F)CC1 [Example 12, 4-(2-{[5-{[5-(4,4-dimethylpiperidin-1-yl)-1,3,4-thiadiazol-2-yl]carbamoyl}-2-(trifluoromethoxy)phenyl]amino}-2-oxoethyl)-1-methylpiperazin-1-ium hexafluorophosphate]	1.5e-05	0.26
O=C(CN1CCOCC1)Nc1cc(C(=O)Nc2nnc(N3CCCC3)s2)ccc1OC(F)(F)F [Example 32, 3-[(morpholin-4-ylacetyl)-amino]-N-(5-(pyrrolidin-1-yl)-1,3,4-thiadiazol-2-yl)-4-(trifluoromethoxy)benzamide]	≥ 5e-05	50
CN1CCN(CC(=O)Nc2cc(C(=O)Nc3nnc(N4CCN(C(=O)OC(C)(C)C)CC4)s3)ccc2OC(F)(F)F)CC1 [Example 2]	≥ 5e-05	0.0415
CN1CCN(CC(=O)Nc2cc(C(=O)Nc3nnc(N4CCC(C)(O)CC4)s3)ccc2OC(F)(F)F)CC1 [Example 8, N-[5-(4-hydroxy-4-methylpiperidin-1-yl)-1,3,4-thiadiazol-2-yl]-3-{[(4-methylpiperazin-1-yl)pacetyl]amino}-4-(trifluoromethoxy)benzamide]	≥ 5e-05	0.655
CC1(O)CCN(c2nnc(NC(=O)c3ccc(OC(F)(F)F)c(NC(=O)CN4CCOCC4)c3)s2)CC1 [Example 27]	≥ 5e-05	20
COC1CCN(c2nnc(NC(=O)c3ccc(OC(F)(F)F)c(NC(=O)CN4CCN(C)CC4)c3)s2)CC1 [Example 11, N-{5-(4-methoxypiperidin-1-yl)-1,3,4-thiadiazol-2-yl]-3-{[(4-methylpiperazin-1-yl)acetyl]amino}-4-(trifluoromethoxy)benzamide]	≥ 5e-05	0.22
